The supplement of paper PMC4862054

Legend:
MDA-MB-468 [1] = assay: drug sensitivity score (DSS), CellTiter-Blue viability (DSS (AUC-based score)); higher = stronger viability inhibition; extreme values may be limits of the assay; details: incubation time: 72 h
Summary of the method: (§1)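 Into 384-well plates carrying compound in a 5- or 9-concentration series went 20 µl of breast cancer cell suspension, followed by 72 h of incubation. Adding 2.5 µl CellTiter-Blue per well and incubating 2 h at 37 °C preceded fluorescence measurement at 560/590 nm. After normalisation of each plate to 0.1 % DMSO and a positive kill control, dose-response curves were fitted and the area beneath them taken as the drug sensitivity score.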

CAL-148 [2] = assay: as above; details: incubation time: 72 h
Summary of the method: as §1

BT-474 [3] = assay: normalised viability (% of control), CellTiter-Blue; higher = more viable cells (100 = DMSO, 0 = benzethonium chloride kill control); details: 1 nM; incubation time: 72 h
Description: (§2)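 DSRT, CellTiter-Blue viability, 72 h incubation. Signal is normalised to DMSO and benzethonium chloride controls. Value is the normalised response at dose 1.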

CAL-85-1 [4] = assay: as above; details: 1 nM; incubation time: 72 h
Description: as §2

HCC1599 = assay: normalised viability (% of control), CellTiter-Blue; higher = more viable cells (about 100 = DMSO control); details: incubation time: 72 h
Summary of the method: (§3)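 Compound dissolved in 5 µl medium was pre-loaded into 384-well plates, and breast cancer cell lines in 20 µl suspension were seeded on top and incubated 72 h. After adding 2.5 µl CellTiter-Blue reagent for 2 h at 37 °C, fluorescence was read at 560/590 nm. Plates were normalised to vehicle (100) and a positive kill control (0), with Z'-factor quality control. Each value is normalised viability at a single listed concentration from the series.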

BT-474 [5] = assay: as above; details: incubation time: 72 h
Summary of the method: as §3

Hs578T = assay: as above; details: incubation time: 72 h
Summary of the method: as §3

CAL-85-1 [6] = assay: as above; details: incubation time: 72 h
Summary of the method: as §3

CAL-51 = assay: as above; details: incubation time: 72 h
Summary of the method: as §3

MDA-MB-436 = assay: as above; details: incubation time: 72 h
Summary of the method: as §3

BT-549 = assay: as above; details: incubation time: 72 h
Summary of the method: as §3

HDQ-P1 = assay: as above; details: incubation time: 72 h
Summary of the method: as §3

HCC1143 = assay: as above; details: incubation time: 72 h
Summary of the method: as §3

SK-BR-3 = assay: as above; details: incubation time: 72 h
Summary of the method: as §3

MFM-223 = assay: as above; details: incubation time: 72 h
Summary of the method: as §3

MDA-MB-468 [7] = assay: as above; details: incubation time: 72 h
Summary of the method: as §3

HCC1937 = assay: as above; details: incubation time: 72 h
Summary of the method: as §3

CAL-148 [8] = assay: as above; details: incubation time: 72 h
Summary of the method: as §3

MDA-MB-231 = assay: as above; details: incubation time: 72 h
Summary of the method: as §3

DU-4475 = assay: as above; details: incubation time: 72 h
Summary of the method: as §3

MDA-MB-453 = assay: as above; details: incubation time: 72 h
Summary of the method: as §3

CAL-120 = assay: as above; details: incubation time: 72 h
Summary of the method: as §3

C1CN1c1nc(N2CC2)nc(N2CC2)n1 [Triethylenemelamine]
Details | drug sensitivity score | normalised viability [%]
BT-474 [3] | – | 117
CAL-85-1 [4] | – | 107
CAL-148 [2] | 0.801 | –
MDA-MB-468 [1] | 0 | –

normalised viability [%]
Details | 3 nM | 10 nM | 30 nM | 100 nM | 1000 nM | 10000 nM
BT-474 [5] | – | 111 | – | – | 126 | 130
BT-549 | – | 105 | – | – | 90.9 | 66.7
CAL-51 | 108 | – | 106 | 97.4 | – | –
CAL-85-1 [6] | 104 | – | 87.6 | 108 | – | –
CAL-120 | – | 112 | – | – | 106 | 98.7
CAL-148 [8] | 101 | – | 105 | 101 | – | –
DU-4475 | 102 | – | 102 | 102 | – | –
HCC1143 | – | 97.8 | – | – | 102 | 93.1
HCC1599 | – | 90.9 | – | – | 92.9 | 83.3
HCC1937 | – | 86.2 | – | – | 72 | 75.3
HDQ-P1 | 110 | – | 94.3 | 118 | – | –
Hs578T | – | 145 | – | – | 117 | 110
MDA-MB-231 | – | 104 | – | – | 81.8 | 78.9
MDA-MB-436 | – | 105 | – | – | 96.5 | 102
MDA-MB-453 | 115 | – | 102 | 122 | – | –
MDA-MB-468 [7] | – | 112 | – | – | 112 | 107
MFM-223 | – | 99.4 | – | – | 98.3 | 64.8
SK-BR-3 | – | 105 | – | – | 109 | 105

Oc1ncc(N(CCCl)CCCl)c(O)n1 [Uracil mustard]
Details | drug sensitivity score | normalised viability [%]
BT-474 [3] | – | 86.6
CAL-85-1 [4] | – | 88.9
CAL-148 [2] | 0 | –
MDA-MB-468 [1] | 0 | –

normalised viability [%]
Details | 3 nM | 10 nM | 30 nM | 100 nM | 1000 nM | 10000 nM
BT-474 [5] | – | 122 | – | – | 120 | 116
BT-549 | – | 93.4 | – | – | 103 | 90.6
CAL-51 | 96.7 | – | 96.7 | 95.7 | – | –
CAL-85-1 [6] | 94.2 | – | 94.2 | 96.7 | – | –
CAL-120 | – | 88.3 | – | – | 87.5 | 82.5
CAL-148 [8] | 85.3 | – | 97.1 | 101 | – | –
DU-4475 | 92 | – | 89.5 | 101 | – | –
HCC1143 | – | 78.4 | – | – | 84.8 | 92.6
HCC1599 | – | 82.1 | – | – | 78.4 | 92.7
HCC1937 | – | 143 | – | – | 82.4 | 66.7
HDQ-P1 | 124 | – | 111 | 107 | – | –
Hs578T | – | 106 | – | – | 100 | 80.3
MDA-MB-231 | – | 100 | – | – | 103 | 89.5
MDA-MB-436 | – | 103 | – | – | 76.6 | 97.8
MDA-MB-453 | 103 | – | 107 | 101 | – | –
MDA-MB-468 [7] | – | 109 | – | – | 97.5 | 85.7
MFM-223 | – | 99.2 | – | – | 95.9 | 99.8
SK-BR-3 | – | 109 | – | – | 95.1 | 79.8

CCCCC(=O)OCC(=O)[C@]1(O)Cc2c(O)c3c(c(O)c2[C@@H](O[C@H]2C[C@H](NC(=O)C(F)(F)F)[C@H](O)[C@H](C)O2)C1)C(=O)c1c(OC)cccc1C3=O [Valrubicin]
Details | drug sensitivity score | normalised viability [%]
BT-474 [3] | – | 92.9
CAL-85-1 [4] | – | 83.5
CAL-148 [2] | 21.1 | –
MDA-MB-468 [1] | 11.7 | –

normalised viability [%]
Details | 3 nM | 10 nM | 30 nM | 100 nM | 1000 nM | 10000 nM
BT-474 [5] | – | 114 | – | – | 74.9 | 55.1
BT-549 | – | 82.4 | – | – | 65.1 | 47.5
CAL-51 | 93.1 | – | 80 | 55.3 | – | –
CAL-85-1 [6] | 80.8 | – | 81.8 | 81.5 | – | –
CAL-120 | – | 96.1 | – | – | 31.8 | 15.6
CAL-148 [8] | 90.9 | – | 72.9 | 60.1 | – | –
DU-4475 | 90.1 | – | 55.4 | 49.8 | – | –
HCC1143 | – | 97.2 | – | – | 47.7 | 24.9
HCC1599 | – | 79.7 | – | – | 67.4 | 40.2
HCC1937 | – | 96.5 | – | – | 30.7 | 19.7
HDQ-P1 | 96.2 | – | 97.4 | 84.7 | – | –
Hs578T | – | 98.8 | – | – | 55.5 | 22
MDA-MB-231 | – | 84.8 | – | – | 45.6 | 19.4
MDA-MB-436 | – | 111 | – | – | 84.9 | 42.8
MDA-MB-453 | 104 | – | 93.2 | 99.3 | – | –
MDA-MB-468 [7] | – | 105 | – | – | 42 | 30.6
MFM-223 | – | 92.1 | – | – | 72.6 | 24.2
SK-BR-3 | – | 91.3 | – | – | 25.9 | 9.82

CCCS(=O)(=O)Nc1ccc(F)c(C(=O)c2c[nH]c3ncc(-c4ccc(Cl)cc4)cc23)c1F [Vemurafenib]
Details | drug sensitivity score | normalised viability [%]
BT-474 [3] | – | 99.8
CAL-85-1 [4] | – | 91.6
CAL-148 [2] | 0 | –
MDA-MB-468 [1] | 0 | –

normalised viability [%]
Details | 3 nM | 10 nM | 30 nM | 100 nM | 1000 nM | 10000 nM
BT-474 [5] | – | 106 | – | – | 120 | 107
BT-549 | – | 96.4 | – | – | 105 | 57.3
CAL-51 | 102 | – | 95.4 | 92.9 | – | –
CAL-85-1 [6] | 92.8 | – | 84.6 | 87.2 | – | –
CAL-120 | – | 92.6 | – | – | 91.8 | 71.7
CAL-148 [8] | 95.2 | – | 97.3 | 98.3 | – | –
DU-4475 | 94.5 | – | 85.1 | 68.2 | – | –
HCC1143 | – | 95.8 | – | – | 102 | 87.4
HCC1599 | – | 77.6 | – | – | 87.6 | 90.9
HCC1937 | – | 109 | – | – | 101 | 67.7
HDQ-P1 | 92.9 | – | 105 | 106 | – | –
Hs578T | – | 112 | – | – | 129 | 45.9
MDA-MB-231 | – | 91.5 | – | – | 92.4 | 100
MDA-MB-436 | – | 104 | – | – | 97.3 | 78.1
MDA-MB-453 | 96.5 | – | 93.1 | 80.1 | – | –
MDA-MB-468 [7] | – | 113 | – | – | 107 | 63.5
MFM-223 | – | 87.9 | – | – | 95.4 | 85.6
SK-BR-3 | – | 88.5 | – | – | 93.8 | 95
